Data reported in US20170106011A1, “METHODS OF TREATING TRAUMATIC BRAIN INJURY AND SEQUELAE” (Cantex Pharmaceuticals, Inc., priority 2015, published 2017).
Entries after “also recorded” stand apart in the source; their conditions may differ.

Legend:
USP anticoagulant assay = assay type: biochemical
[1] = test system: middle cerebral artery occlusion animal model; assay: secondary brain injury after middle cerebral artery occlusion in an animal model; assay type: in vivo
[2] = test system: patients with moderate TBI; assay: clinical trial of ODSH infusion in moderate TBI; assay type: in vivo; settings: ODSH infusion added to best supportive care
Method: FIG. 4 outlines the phase II clinical trial of ODSH for treating TBI.
A clinical trial is conducted.
Enrollment criteria are (i) moderate TBI: Glasgow Coma Score (GCS) of 9-12, or if patient is intubated, GCS 7-9; (ii) cerebral contusions on CT scan. Patients are randomized into 2 groups. Both groups receive best supportive care. This is an active treatment control. One group additionally receives infusion of ODSH.

[3] = comparator, Rao et al. 2010; cited from earlier work

| Substance | anticoagulant activity in the USP anticoagulant assay (USP anticoagulant assay) | anticoagulant activity in the USP anticoagulant assay (e.g. value) (USP anticoagulant assay) | secondary brain injury [1] | inflammatory biomarkers [2] | Glasgow Outcome Scale scores ([2]; at 6 months) | Montreal Cognitive Assessment (MoCA) score ([2]; six months post-injury) | activity in the USP anticoagulant assay [3] |
| --- | --- | --- | --- | --- | --- | --- | --- |
| 2-O, 3-O-desulfated heparin [ODSH] | less than 9 U/mg | 7±0.3 U | reduction of secondary brain injury; also recorded: reduced secondary brain injury | reduces | improves | improves | – |
| unfractionated heparin | – | – | – | – | – | – | 165-190 U/mg |
